Data as given in ChEMBL document CHEMBL4049438, “Discovery and Optimization of Isoquinoline Ethyl Ureas as Antibacterial Agents” (J Med Chem, 2017).
In brackets after ≈: the same amount, converted by molar mass. Activity calls are given as the source filed them. No cut-off for these calls is given here.

How the values were obtained:
[1] = test system: Escherichia coli; test: Inhibition of Escherichia coli N-terminal His6-tagged DNA gyrase subunit GyrA/GyrB ATPase activity at 100 to 500 uM after 40 mins by spectrophotometric analysis
[2] = Inhibition of Escherichia coli N-terminal His6-tagged DNA gyrase subunit GyrA/GyrB ATPase activity expressed in Escherichia coli BL21 (DE3) after 40 mins by spectrophotometric analysis
[3] = molecular target: hERG (KCNH2) (Homo sapiens, UniProt Q12809); test: Inhibition of human ERG expressed in CHO cells at 10 uM after 3 mins at -80 mV holding potential by Qpatch assay; assay type: cell-based; conditions: CHO cells expressing human ERG
[4] = test system: Staphylococcus aureus; test: Antibacterial activity against Staphylococcus aureus ATCC 29213 by broth microdilution method; assay type: functional
[5] = Octanol-phosphate buffer partition coefficient, logD of compound at pH 7.4 by LC/UV analysis; assay type: physicochemical
[6] = Inhibition of Staphylococcus aureus topoisomerase 4 subunit ParC/ParE relaxation expressed in Escherichia coli BL21 (DE3) using supercoiled pBR322 DNA as substrate after 1 hr by agarose gel electrophoresis
[7] = molecular target: DNA gyrase (Staphylococcus aureus, UniProt P0A0K8+P20831)
Description: Inhibition of Staphylococcus aureus N-terminal His6-tagged DNA gyrase subunit GyrA/GyrB supercoiling activity expressed in Escherichia coli BL21 (DE3) using relaxed pBR322 DNA as substrate after 1 hr by agarose gel electrophoresis

[8] = Dissociation constant, pKa of the compound by pH metric assay; assay type: physicochemical
[9] = Inhibition of Escherichia coli N-terminal His6-tagged DNA gyrase subunit GyrA/GyrB supercoiling activity expressed in Escherichia coli BL21 (DE3) using relaxed pBR322 DNA as substrate after 1 hr by agarose gel electrophoresis
[10] = test system: Escherichia coli; test: Antibacterial activity against TolC deficient Escherichia coli by broth microdilution method; assay type: functional
[11] = Inhibition of Escherichia coli DNA topoisomerase 4 subunit ParC/ParE relaxation expressed in Escherichia coli BL21 (DE3) using supercoiled pBR322 DNA as substrate after 1 hr by agarose gel electrophoresis

Sequence of DNA gyrase (P0A0K8 whole entry): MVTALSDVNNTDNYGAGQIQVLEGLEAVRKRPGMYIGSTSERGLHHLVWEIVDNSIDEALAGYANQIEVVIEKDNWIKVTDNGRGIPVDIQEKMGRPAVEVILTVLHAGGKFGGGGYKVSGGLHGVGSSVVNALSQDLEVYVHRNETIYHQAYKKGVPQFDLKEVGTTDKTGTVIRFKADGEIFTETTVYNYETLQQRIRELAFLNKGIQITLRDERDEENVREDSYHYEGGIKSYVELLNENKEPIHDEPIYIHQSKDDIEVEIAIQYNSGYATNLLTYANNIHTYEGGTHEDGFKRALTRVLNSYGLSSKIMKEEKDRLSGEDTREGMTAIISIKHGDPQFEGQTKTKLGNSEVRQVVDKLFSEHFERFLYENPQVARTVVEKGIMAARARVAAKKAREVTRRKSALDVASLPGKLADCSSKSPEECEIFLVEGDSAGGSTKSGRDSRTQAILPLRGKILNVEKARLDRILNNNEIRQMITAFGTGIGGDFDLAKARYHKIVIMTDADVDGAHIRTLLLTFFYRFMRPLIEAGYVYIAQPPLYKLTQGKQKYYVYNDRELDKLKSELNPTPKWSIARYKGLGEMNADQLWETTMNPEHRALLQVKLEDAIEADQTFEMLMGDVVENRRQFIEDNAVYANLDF
Sequence of DNA gyrase (P20831 whole entry): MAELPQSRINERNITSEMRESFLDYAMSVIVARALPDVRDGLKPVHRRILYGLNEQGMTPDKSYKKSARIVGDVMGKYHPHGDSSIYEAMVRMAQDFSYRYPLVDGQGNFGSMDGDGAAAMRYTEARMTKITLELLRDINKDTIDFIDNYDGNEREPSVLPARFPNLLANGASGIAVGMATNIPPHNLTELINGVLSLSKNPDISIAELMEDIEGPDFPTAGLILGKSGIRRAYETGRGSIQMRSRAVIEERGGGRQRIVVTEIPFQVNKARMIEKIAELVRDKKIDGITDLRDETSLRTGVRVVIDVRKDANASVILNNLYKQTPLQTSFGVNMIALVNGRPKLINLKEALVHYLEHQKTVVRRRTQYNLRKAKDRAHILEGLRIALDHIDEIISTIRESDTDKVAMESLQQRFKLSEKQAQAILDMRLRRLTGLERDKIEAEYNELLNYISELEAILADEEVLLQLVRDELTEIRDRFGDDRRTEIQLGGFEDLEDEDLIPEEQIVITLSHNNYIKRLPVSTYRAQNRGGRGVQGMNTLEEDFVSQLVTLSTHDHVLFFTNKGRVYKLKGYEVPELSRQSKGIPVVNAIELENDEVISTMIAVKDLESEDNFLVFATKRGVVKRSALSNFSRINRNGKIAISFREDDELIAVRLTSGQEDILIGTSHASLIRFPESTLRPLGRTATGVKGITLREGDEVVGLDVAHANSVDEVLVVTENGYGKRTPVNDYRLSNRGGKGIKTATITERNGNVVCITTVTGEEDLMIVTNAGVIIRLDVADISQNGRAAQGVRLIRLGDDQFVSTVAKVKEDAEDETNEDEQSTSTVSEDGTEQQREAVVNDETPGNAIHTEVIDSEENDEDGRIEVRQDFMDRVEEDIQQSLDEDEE
Sequence of hERG (KCNH2) (Q12809 whole entry): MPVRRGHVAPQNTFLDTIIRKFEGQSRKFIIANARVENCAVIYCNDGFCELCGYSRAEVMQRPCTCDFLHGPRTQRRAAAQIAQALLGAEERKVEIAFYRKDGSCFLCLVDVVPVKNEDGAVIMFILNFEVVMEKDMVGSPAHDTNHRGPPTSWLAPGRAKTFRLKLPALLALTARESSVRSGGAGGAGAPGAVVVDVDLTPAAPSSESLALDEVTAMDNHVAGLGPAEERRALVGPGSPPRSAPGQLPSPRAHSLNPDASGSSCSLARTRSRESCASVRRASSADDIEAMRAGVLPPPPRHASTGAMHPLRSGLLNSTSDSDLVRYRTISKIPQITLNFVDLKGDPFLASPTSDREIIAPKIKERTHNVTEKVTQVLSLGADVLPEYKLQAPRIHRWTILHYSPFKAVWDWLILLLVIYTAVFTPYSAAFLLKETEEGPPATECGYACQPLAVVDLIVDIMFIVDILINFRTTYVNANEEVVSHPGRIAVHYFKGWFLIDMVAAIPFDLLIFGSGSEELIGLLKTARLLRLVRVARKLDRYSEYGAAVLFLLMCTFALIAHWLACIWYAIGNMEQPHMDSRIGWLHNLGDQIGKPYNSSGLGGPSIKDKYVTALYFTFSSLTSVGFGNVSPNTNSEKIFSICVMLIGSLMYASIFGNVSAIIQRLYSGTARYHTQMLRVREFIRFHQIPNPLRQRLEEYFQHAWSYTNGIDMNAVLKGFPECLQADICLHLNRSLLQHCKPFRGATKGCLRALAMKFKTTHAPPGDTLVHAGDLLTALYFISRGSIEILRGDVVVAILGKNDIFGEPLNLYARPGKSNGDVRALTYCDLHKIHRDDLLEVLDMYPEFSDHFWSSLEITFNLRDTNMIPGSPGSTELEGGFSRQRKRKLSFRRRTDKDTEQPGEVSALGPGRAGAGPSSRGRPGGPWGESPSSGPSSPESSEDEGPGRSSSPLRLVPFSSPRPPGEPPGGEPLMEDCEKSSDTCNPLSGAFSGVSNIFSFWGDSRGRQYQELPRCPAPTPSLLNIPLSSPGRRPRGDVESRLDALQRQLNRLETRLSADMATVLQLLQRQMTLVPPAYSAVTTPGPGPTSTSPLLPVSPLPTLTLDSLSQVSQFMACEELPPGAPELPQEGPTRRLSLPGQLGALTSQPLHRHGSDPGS

Compound | inhibition [1] | IC50 [2] [µM] | inhibition at 0.05 h, 10 µM [3] [%] | MIC [4] [µg/mL] | logD [5] | IC50 [6] [µM] | IC50 [7] [µM] | pKa [8] | IC50 [9] [µM] | MIC [10] [µg/mL] | IC50 [11] [µM]
CCNC(=O)Nc1cnc2ccccc2n1 | Active | 20 |  |  |  |  |  |  |  |  | 
CCNC(=O)Nc1cc2c(-c3ccncc3)ccc(CNC(=O)OC(C)C)c2cn1 |  |  | 63 | 0.25 (≈ 0.614 µM) | 3.7 | 0.5 | < 0.004 |  |  |  | 
CCNC(=O)Nc1cc2c(-c3ccnc(C)c3)ccc(CNC(=O)C3CC3)c2cn1 |  |  | 75 | 0.06 (≈ 0.149 µM) | 3.4 | 2 | < 0.004 |  |  |  | 
CCNC(=O)Nc1cc2c(-c3ccnc(C)c3)ccc(COC(=O)N[C@@H]3CCNC[C@H]3F)c2cn1 (relative stereo) |  |  | 9 | 2 (≈ 4.16 µM) | 2.2 | 0.125 | 0.008 | 7.7 |  |  | 
CCNC(=O)Nc1cc2c(-c3ccncc3)ccc(CNC(=O)OCCO)c2cn1 |  |  | 0 | 2 (≈ 4.88 µM) | 2 | 0.5 | < 0.004 |  |  |  | 
CCNC(=O)Nc1cc2c(-c3ccnc(C)c3)ccc(CNC(=O)OCCO)c2cn1 |  |  | 19 | 1 (≈ 2.36 µM) | 2.5 | 8 | 0.03 |  |  |  | 
CCNC(=O)Nc1ccc2ccccc2n1 | Active | 70 |  |  |  |  |  |  |  |  | 
CCNC(=O)Nc1nc2ccncc2s1 | Active | 20 |  |  |  |  |  |  |  |  | 
CCNC(=O)Nc1cc2cccc(C)c2cn1 |  | 1 |  | 32 (≈ 140 µM) |  | > 256 | 8 |  | 32 | > 32 | 128
CCNC(=O)Nc1nc2c(s1)NC(=O)CC2 | Active | 20 |  |  |  |  |  |  |  |  | 
CCNC(=O)Nc1cc2c(-c3ccnc(C)c3)ccc(CNC(=O)OC3CCNCC3(F)F)c2cn1 (stereo unspecified) |  |  | 8 | 0.5 (≈ 1 µM) | 3.1 | 2 | 0.008 | 6.5 |  |  | 
CCNC(=O)Nc1cc2c(-c3cncnc3)ccc(C)c2cn1 |  | < 0.2 |  | > 32 |  | > 256 | 0.5 |  | 2 | > 32 | > 256
CCNC(=O)Nc1cc2c(-c3cccnc3)cccc2cn1 |  | 1 |  | > 32 |  | > 256 | 8 |  | 32 | > 32 | 128
CCNC(=O)Nc1cc2c(-c3ccnc(C)c3)ccc(COC(=O)N3CCN(CC4CC4)CC3)c2cn1.Cl |  |  | 74 | 1 | 3.6 | 0.5 | 0.008 | 7.4 |  |  | 
CCNC(=O)Nc1ncc2ccccc2n1 | Active | > 200 |  |  |  |  |  |  |  |  | 
CCNC(=O)Nc1nc2c(s1)CCCC2 | Active | 200 |  |  |  |  |  |  |  |  | 
CCNC(=O)Nc1cc2c(-c3cccnc3)ccc(C)c2cn1 |  | < 0.2 |  | 2 (≈ 6.53 µM) |  | > 256 | 0.125 |  | 2 | > 32 | > 256
CCNC(=O)Nc1ccccn1 | Active | > 200 |  |  |  |  |  |  |  |  | 
CCNC(=O)Nc1cc2c(-c3ccncc3)ccc(-c3cccnc3)c2cn1 |  |  |  | > 16 |  | > 256 | 0.125 |  | 2 |  | > 256
CCNC(=O)Nc1cc2c(-c3cnn(C)c3)ccc(C)c2cn1.Cl |  | < 0.2 |  | 4 |  | > 256 | 0.125 |  | 8 | 16 | 32

Compound | inhibition [1] | IC50 [2] [µM] | inhibition at 0.05 h, 10 µM [3] [%] | MIC [4] [µg/mL] | logD [5] | IC50 [6] [µM] | IC50 [7] [µM] | pKa [8] | IC50 [9] [µM] | MIC [10] [µg/mL] | IC50 [11] [µM]
CCNC(=O)Nc1cc2c(-c3ccncn3)ccc(C)c2cn1 |  | < 0.2 |  | 4 (≈ 13 µM) |  | 32 | 0.5 |  |  | 4 (≈ 13 µM) | 32
CCNC(=O)Nc1cc2c(-c3ccnc(C)c3)ccc(Cc3cccnc3)c2cn1.Cl |  |  |  | 0.5 |  | 2 | 0.03 |  | 0.125 |  | 8
CCNC(=O)Nc1cc2c(-c3ccnc(C)c3)ccc(Nc3cccc(C(=O)O)c3)c2cn1 |  |  |  | 0.5 (≈ 1.13 µM) |  | 0.125 | 0.008 |  |  |  | 0.5
CCNC(=O)Nc1cc2c(-c3ccnc(C)c3)ccc(COC(=O)NC3CCNCC3)c2cn1 |  |  | 2 | 16 (≈ 34.6 µM) | 0.8 | 0.5 | 0.008 | 9.8 |  |  | 
CCNC(=O)Nc1cc2c(-c3ccncc3)ccc(Nc3cccnc3)c2cn1 |  |  |  | 0.06 (≈ 0.156 µM) |  | 0.125 | 0.008 |  | 0.03 |  | 0.5
CCNC(=O)Nc1nccc2ccccc12 | Active | > 200 |  |  |  |  |  |  |  |  | 
CCNC(=O)Nc1cc2c(-c3ccnc(C)c3)ccc(CNC(=O)CCOC)c2cn1 |  |  | 0 | 0.5 (≈ 1.19 µM) | 2.6 | 2 | 0.008 |  |  |  | 
CCNC(=O)Nc1nc2ccccc2s1 | Active | 20 |  |  |  |  |  |  |  |  | 
CCNC(=O)Nc1cc2c(-c3ccncc3)ccc(CNC(=O)OCCNCC(C)(C)C)c2cn1 |  |  | 25 | 4 (≈ 8.36 µM) | 2.6 | 8 | 0.008 | 8.7 |  |  | 
CCNC(=O)Nc1cc2c(-c3ccnc(C)c3)ccc(C)c2cn1 |  | < 0.2 |  | 0.5 (≈ 1.56 µM) |  | 8 | 0.03 |  | 0.125 | 4 (≈ 12.5 µM) | 8
CCNC(=O)Nc1cc2ccccc2cn1 | Active | 20 |  | > 32 |  | > 256 | 128 |  |  | > 32 | > 256
CCNC(=O)Nc1cc2c(-c3ccc(C#N)cc3)ccc(C)c2cn1 |  | < 0.2 |  | > 32 |  | > 256 | 0.03 |  | 0.125 | > 32 | > 256
CCNC(=O)Nc1cc2c(-c3ccnc(C)c3)ccc(COC(=O)N3CCNCC3)c2cn1 |  |  | 0 | 2 (≈ 4.46 µM) | 1.9 | 0.5 | 0.008 | 8.1 |  |  | 
CCNC(=O)Nc1cc2c(-c3ccncc3)ccc(Oc3cccnc3)c2cn1 |  |  |  | 0.25 (≈ 0.649 µM) |  | 2 | 0.03 |  | 0.125 |  | 8
CCNC(=O)Nc1nc2c(s1)CNCC2 | Active | 200 |  |  |  |  |  |  |  |  | 
CCNC(=O)Nc1cc2c(-c3ccncc3)ccc(CNC(=O)OCCN3CCOCC3)c2cn1.Cl |  |  | 0 | 4 | 2.3 | 0.5 | < 0.004 | 6.3 |  |  | 
CCNC(=O)Nc1cc2c(-c3ccncc3)ccc(CNC(=O)OCCNC)c2cn1 |  |  | 3 | > 32 | 0.2 | 2 | 0.03 | 9 |  |  | 
CCNC(=O)Nc1cc2c(-c3ccncc3)ccc(CNC(=O)OC)c2cn1 |  |  | 41 | 0.125 (≈ 0.329 µM) | 2.7 | 0.5 | < 0.004 |  |  |  | 
CCNC(=O)Nc1nccs1 | Active | > 200 |  |  |  |  |  |  |  |  | 
